Measurements: patent publication US9102669B2, “Substituted piperidinyl-pyridazinyl derivatives useful as SCD 1 inhibitors” (Janssen Pharmaceutica NV, priority 2011, dated 2015)

Experiments:
[1] = 4 week Zucker fa/fa rat study, body weight; assay type: in vivo; settings: Zucker fa/fa rats
Method: Male Zucker fa/fa rats were housed one rat per cage in a temperature-controlled room with 12-hour light/dark cycle. The rats were fed on regular rodent diet (Purina 5008) and allowed ad libitum access to water. The experiment was initiated at an age of 8-9 week, and at body weight of about 350 g. Test compound was prepared in 0.5% HPMC for dosing q.d at 1 mg/kg, 3 mg/kg and 10 mg/kg, as noted in the table of results below. Body weight, food intake and fed blood glucose were monitored weekly. On day 26, all rats were given with the last dose 1 hr prior to the necropsy.

[2] = 10-day diet-induced obese C57bl/6 mice study, body weight change; assay type: in vivo, mouse; set-up: unit not given here; settings: DIO C57BL/6J mice, oral 30 mg/kg once a day, after 10 days of treatment
Method: Male DIO C57BL/6J mice from Taconic were maintained on high fat diet D12492 containing 60% kCal of mostly saturated fats (Research Diets Inc.) for 4 week from 6-week old. Test compounds were prepared in 0.5% hydroxypropyl methyl cellulose for oral dosing at 30 mg/kg once a day. After 10-days of treatment, body weight change was recorded.
Representative compounds of the present invention were tested according to the procedure as described above, with results as listed in Table 7, below. In the results presented below, * indicates a calculated p value <0.05 vs. vehicle-treated group.

Cn1cc(-c2ccc(N3CCC(N4CCc5ccc(F)cc54)CC3)nn2)cn1 [Compound #11, 6-fluoro-1-(1-(6-(1-methyl-1H-pyrazol-4-yl)pyridazin-3-yl)piperidin-4-yl)indoline]
Body Weight Day 1 ([1]; 1 mg/kg q.d.): 373 ± 7 grams | Body Weight Day 8 ([1]; 1 mg/kg q.d.): 404 ± 13 grams | Body Weight Day 15 ([1]; 1 mg/kg q.d.): 442 ± 12 grams | Body Weight Day 22 ([1]; 1 mg/kg q.d.): 482 ± 10 grams | Body Weight Day 26 ([1]; 1 mg/kg q.d.): 496 ± 10 grams | Body Weight Day 1 ([1]; 3 mg/kg q.d.): 372 ± 6 grams | Body Weight Day 8 ([1]; 3 mg/kg q.d.): 417 ± 7 grams | Body Weight Day 15 ([1]; 3 mg/kg q.d.): 452 ± 6 grams | Body Weight Day 22 ([1]; 3 mg/kg q.d.): 484 ± 6 grams | Body Weight Day 26 ([1]; 3 mg/kg q.d.): 498 ± 6 grams | Body Weight Day 1 ([1]; 10 mg/kg q.d.): 373 ± 5 grams | Body Weight Day 8 ([1]; 10 mg/kg q.d.): 402 ± 6 grams | Body Weight Day 15 ([1]; 10 mg/kg q.d.): 430 ± 7 grams | Body Weight Day 22 ([1]; 10 mg/kg q.d.): 445 ± 9 grams | Body Weight Day 26 ([1]; 10 mg/kg q.d.): 451 ± 9 grams | body weight change [2]: −2.1 ± 0.3 *
